According to BindingDB's records for doi:10.1016/s0960-894x(00)00163-3 (Glaxosmithkline, 2000):

Target: T1, Dimer of Gag-Pol polyprotein [501-599,Q508K,L534I,L564I,C568A,C596A] (Human immunodeficiency virus 1, UniProt P03367, C568A/C596A/L534I/L564I/Q508K)
T1 construct: 501-599
Experiment: Protease Inhibition Assay
Conditions: pH 6.4; 25 °C
Description: The Ki values were determined using fluorogenic substrate, 2-(aminobenzoyl)-Thr-Ile-Nle-Phe(p-NO2)-Gln-ArgNH2. A standard curve relating changes in fluorescent intensity to changes in concentration of product was used to convert fluorescent changes into molar velocities. The amount of cleavage was determined by HPLC.

SMILES: O=C(N[C@H]1c2ccccc2C[C@H]1O)[C@H](Cc1ccccc1)C[C@H](O)CN1C(=O)[C@H](Cc2ccccc2)C[C@@H]1Cc1ccccc1 [(2R,4S)-2-benzyl-5-[(3R,5R)-3,5-dibenzyl-2-oxopyrrolidin-1-yl]-4-hydroxy-N-[(1S,2R)-2-hydroxy-2,3-dihydro-1H-inden-1-yl]pentanamide]
- Ki: > 500 pM
